Reference: ChEMBL document CHEMBL3885881, “DrugMatrix”
Values joined by “and” are separate entries in the source; they are usually repeats but may differ in a detail not shown here. Equal values may be shown once.

Species on record: Rattus norvegicus
Assay: DrugMatrix - Regimen: Daily Repeat
Type: toxicity, organism-based, Sprague-Dawley
Design: regimen Daily Repeat, gender Male, age 6-8 weeks
Settings: in vivo, po, 10 mg/kg, route oral GAVAGE, dose level Low, vehicle .5 % CMC; for ALANINE AMINOTRANSFERASE / ALBUMIN / ALKALINE PHOSPHATASE / ASPARTATE AMINOTRANSFERASE / BLOOD UREA NITROGEN / CARBON DIOXIDE / CHLORIDE / CHOLESTEROL / CREATINE PHOSPHOKINASE / CREATININE / GLUCOSE / LACTATE DEHYDROGENASE / LIPASE / PHOSPHORUS / POTASSIUM / SODIUM / TOTAL BILIRUBIN / TOTAL PROTEIN / URIC ACID: tissue Plasma
[1] = 120 h, tissue Blood, time 5 day

With `CN(C)CCN(Cc1cccs1)c1ccccn1` as the compound, how does the “ABSOLUTE BASOPHIL” value (72 h, tissue Blood, time 3 day) read?
The value was 0 CELLS/uL.

And the “ABSOLUTE EOSINOPHIL” value (72 h, tissue Blood, time 3 day)?
The value was 27 CELLS/uL.

And the “ABSOLUTE LYMPHOCYTE” value (72 h, tissue Blood, time 3 day)?
Its value is 9772.67 CELLS/uL.

What about the “ABSOLUTE MONOCYTE” value (72 h, tissue Blood, time 3 day) of the same compound?
Its value is 248.67 CELLS/uL.

What about the “ABSOLUTE SEGMENTED NEUTROPHIL” value (72 h, tissue Blood, time 3 day) of the same compound?
Its value is 751.67 CELLS/uL.

What about the BASOPHIL (72 h, tissue Blood, time 3 day) of the same compound?
Its BASOPHIL is 0%.

And the EOSINOPHIL (72 h, tissue Blood, time 3 day)?
Its EOSINOPHIL is 0.33%.

What about the “ERYTHROCYTE COUNT” value (72 h, tissue Blood, time 3 day) of the same compound?
Its value is 4.84 x10E6/uL.

And the HEMATOCRIT (72 h, tissue Blood, time 3 day)?
Its HEMATOCRIT is 31.57%.

And the HEMOGLOBIN (72 h, tissue Blood, time 3 day)?
Its HEMOGLOBIN is 12.13 G/DL.

What about the “LEUKOCYTE COUNT” value (72 h, tissue Blood, time 3 day) of the same compound?
Its value is 10.8 x10E3/uL.

What about the LYMPHOCYTE (72 h, tissue Blood, time 3 day) of the same compound?
The LYMPHOCYTE was 90.33%.

What about the “MEAN CORPUSCULAR HEMOGLOBIN” value (72 h, tissue Blood, time 3 day) of the same compound?
Its value is 25.1 pg.

And the “MEAN CORPUSCULAR HEMOGLOBIN CONCENTRATION” value (72 h, tissue Blood, time 3 day)?
Its value is 38.43 G/DL.

And the “MEAN CORPUSCULAR VOLUME” value (72 h, tissue Blood, time 3 day)?
The value was 65.27 fL.

What about the MONOCYTE (72 h, tissue Blood, time 3 day) of the same compound?
The MONOCYTE was 2.33%.

And the NEUTROPHIL (72 h, tissue Blood, time 3 day)?
The NEUTROPHIL was 7%.

And the “NUCLEATED RED BLOOD CELLS” value (72 h, tissue Blood, time 3 day)?
Its value is 0 /100WBC.

What about the “PLATELET COUNT” value (72 h, tissue Blood, time 3 day) of the same compound?
The value was 1127 x10E3/uL.

What about the “ALANINE AMINOTRANSFERASE” value (72 h, time 3 day) of the same compound?
The value was 57.33 u/L.

What about the ALBUMIN (72 h, time 3 day) of the same compound?
The ALBUMIN was 3.9 G/DL.

And the “ALKALINE PHOSPHATASE” value (72 h, time 3 day)?
Its value is 413.67 u/L.

And the “ASPARTATE AMINOTRANSFERASE” value (72 h, time 3 day)?
The value was 90.67 u/L.

What about the “BLOOD UREA NITROGEN” value (72 h, time 3 day) of the same compound?
Its value is 16 mg/dL.

And the “CARBON DIOXIDE” value (72 h, time 3 day)?
The value was 30.33 mmol/L.

What about the CHLORIDE (72 h, time 3 day) of the same compound?
Its CHLORIDE is 98.33 MEQ/L.

What about the CHOLESTEROL (72 h, time 3 day) of the same compound?
Its CHOLESTEROL is 86 mg/dL.

And the “CREATINE PHOSPHOKINASE” value (72 h, time 3 day)?
Its value is 368 u/L.

What about the CREATININE (72 h, time 3 day) of the same compound?
Its CREATININE is 0.25 mg/dL.

And the GLUCOSE (72 h, time 3 day)?
The GLUCOSE was 147.33 mg/dL.

And the “LACTATE DEHYDROGENASE” value (72 h, time 3 day)?
Its value is 103 u/L.

What about the LIPASE (72 h, time 3 day) of the same compound?
The LIPASE was 10.67 u/L.

What about the PHOSPHORUS (72 h, time 3 day) of the same compound?
The PHOSPHORUS was 10.53 mg/dL.

And the POTASSIUM (72 h, time 3 day)?
Its POTASSIUM is 5.88 MEQ/L.

And the SODIUM (72 h, time 3 day)?
The SODIUM was 141.1 MEQ/L.

What about the “TOTAL BILIRUBIN” value (72 h, time 3 day) of the same compound?
The value was 0.23 mg/dL.

What about the “TOTAL PROTEIN” value (72 h, time 3 day) of the same compound?
Its value is 6.23 G/DL.

What about the “URIC ACID” value (72 h, time 3 day) of the same compound?
The value was 0.43 mg/dL.

And the “ABSOLUTE SEGMENTED NEUTROPHIL” value [1]?
Its value is 1373 CELLS/uL.

And the BASOPHIL [1]?
Its BASOPHIL is 0.85% and 0%.

What about the EOSINOPHIL [1] of the same compound?
Its EOSINOPHIL is 0.43% and 0.33%.

And the “ERYTHROCYTE COUNT” value [1]?
The value was 6.77 x10E6/uL and 5.32 x10E6/uL.

What about the HEMATOCRIT [1] of the same compound?
The HEMATOCRIT was 44.08% and 33.07%.

What about the HEMOGLOBIN [1] of the same compound?
The HEMOGLOBIN was 13.62 G/DL and 12.93 G/DL.

And the “LEUKOCYTE COUNT” value [1]?
The value was 14.73 x10E3/uL and 11.23 x10E3/uL.

And the LYMPHOCYTE [1]?
Its LYMPHOCYTE is 80.67% and 87%.

What about the “MEAN CORPUSCULAR HEMOGLOBIN” value [1] of the same compound?
The value was 20.1 pg and 24.37 pg.

And the “MEAN CORPUSCULAR HEMOGLOBIN CONCENTRATION” value [1]?
The value was 30.93 G/DL and 39.13 G/DL.

What about the “MEAN CORPUSCULAR VOLUME” value [1] of the same compound?
Its value is 65 fL and 62.23 fL.

What about the MONOCYTE [1] of the same compound?
Its MONOCYTE is 2.75% and 0.33%.

And the NEUTROPHIL [1]?
Its NEUTROPHIL is 13.88% and 12.33%.

What about the “NUCLEATED RED BLOOD CELLS” value [1] of the same compound?
The value was 0 /100WBC.

What about the “PLATELET COUNT” value [1] of the same compound?
Its value is 1086.75 x10E3/uL and 1423 x10E3/uL.

What about the “ALANINE AMINOTRANSFERASE” value (120 h, time 5 day) of the same compound?
The value was 52.75 u/L and 43 u/L.

What about the ALBUMIN (120 h, time 5 day) of the same compound?
Its ALBUMIN is 3.67 G/DL and 4 G/DL.

What about the “ALKALINE PHOSPHATASE” value (120 h, time 5 day) of the same compound?
Its value is 395.75 u/L and 410 u/L.

And the “ASPARTATE AMINOTRANSFERASE” value (120 h, time 5 day)?
Its value is 91 u/L and 82.67 u/L.

And the “BLOOD UREA NITROGEN” value (120 h, time 5 day)?
The value was 13.75 mg/dL and 14.67 mg/dL.

And the “CARBON DIOXIDE” value (120 h, time 5 day)?
The value was 36.75 mmol/L and 34.67 mmol/L.

What about the CHLORIDE (120 h, time 5 day) of the same compound?
Its CHLORIDE is 105.75 MEQ/L and 99.33 MEQ/L.

And the CHOLESTEROL (120 h, time 5 day)?
The CHOLESTEROL was 84.75 mg/dL and 72 mg/dL.

What about the “CREATINE PHOSPHOKINASE” value (120 h, time 5 day) of the same compound?
Its value is 591 u/L and 571.33 u/L.

What about the CREATININE (120 h, time 5 day) of the same compound?
The CREATININE was 0.4 mg/dL and 0.23 mg/dL.

What about the GLUCOSE (120 h, time 5 day) of the same compound?
The GLUCOSE was 181.5 mg/dL and 137.33 mg/dL.

What about the “LACTATE DEHYDROGENASE” value (120 h, time 5 day) of the same compound?
The value was 125.75 u/L and 163.67 u/L.

And the LIPASE (120 h, time 5 day)?
Its LIPASE is 18.5 u/L and 7.33 u/L.

What about the PHOSPHORUS (120 h, time 5 day) of the same compound?
Its PHOSPHORUS is 11.68 mg/dL and 12.63 mg/dL.

And the POTASSIUM (120 h, time 5 day)?
Its POTASSIUM is 6.62 MEQ/L and 6.41 MEQ/L.

What about the SODIUM (120 h, time 5 day) of the same compound?
The SODIUM was 151 MEQ/L and 143.33 MEQ/L.

What about the “TOTAL BILIRUBIN” value (120 h, time 5 day) of the same compound?
Its value is 0.28 mg/dL and 0.13 mg/dL.

And the “TOTAL PROTEIN” value (120 h, time 5 day)?
Its value is 6.15 G/DL and 6.1 G/DL.

What about the “URIC ACID” value (120 h, time 5 day) of the same compound?
Its value is 1.28 mg/dL and 0.87 mg/dL.
